Like-named read-outs stand apart in the source and are kept apart here.

The subject of this experiment is Adult mongrel dogs. In words: Cardiotonic activity: hemodynamic and inotropic responses (MAP, HR, dP/dt, contractile force) in anesthetized dogs, iv infusion. Type of experiment: in vivo, mongrel dog. To be noted: Canis lupus familiaris; for ED50: dose producing a 50% increase above baseline in myocardial contractile force, iv, read-out: contractile force (CF) ED50. As to the method: Adult mongrel dogs were anesthetized with sodium pentobarbital (45 mg/kg, i.p.) and artificially respired. Mean arterial pressure (MAP) was recorded from a cannulated femoral artery and drugs were infused into a cannulated femoral vein. The arterial pressure pulse was used to trigger a cardiotachometer for determination of heart rate (HR). Left ventricular pressure was measured with a Millar catheter and dP/dtmax was derived. A right thoracotomy was performed and myocardial contractile force (CF) was measured with a Walton Brodie strain gauge sutured to the right ventricle. The ventricular muscle was stretched to produce a baseline tension of 100 g. A standard dose of dopamine (10-15 ug/kg/min for 3 min) was administered to determine myocardial responsiveness to inotropic stimulation.
Test compounds were solubilized in a small volume of DMF diluted to a final concentration of 10% in physiological saline. Alternatively, where possible, a soluble hydrochloride salt was prepared by addition of 0.1N HCl diluted in physiological saline. Vehicles were tested in appropriate volumes and found to exert less than a 5% effect on contractile force. For iv studies, compounds were administered by infusion pump (one drug per animal) at rates of 0.58-2.2 mL/min in three to four stepwise increasing doses. Each dose was infused over 5 min immediately after the effect of the previous dose peaked. MAP, HR, dP/dtmax and CF responses were continuously monitored on a Beckman or Gould recorder and expressed as a percent change from pre-drug control values vs. the cumulative dose of drug administered. For these studies, n represents the number of test animals used.
Quantitation of the inotropic potency was obtained by calculation of the contractile force (CF) ED50. This was defined as the dose of compound that produced a 50% increase above baseline in myocardial contractile force. The value was obtained from three to four point dose-response curves using either graphical estimation (n<3) or linear regression analysis (n≥3). Numbers in parentheses are number of animals screened.

The mark [1] stands for this setting: Table 1, 1.875 mg/kg iv, cumulative dose, read-out: CF (myocardial contractile force), % from Control.
The mark [2] stands for this setting: Table 1, 1.875 mg/kg iv, cumulative dose, read-out: HR (heart rate), % from Control.
[3] abbreviates: Table 1, 1.875 mg/kg iv, cumulative dose, read-out: MAP (mean arterial pressure), % from Control.
Setting [4] is: Table 1, 1.875 mg/kg iv, cumulative dose, read-out: dPdt (left ventricular dP/dtmax), % from Control.
The mark [5] stands for this setting: range in parentheses on next line.
Setting [6] is: Table 2, 1.875 mpk iv, read-out: CF (myocardial contractile force), percent change from pre-drug control.
The mark [7] stands for this setting: Table 2, 1.875 mpk iv, read-out: HR (heart rate), percent change from pre-drug control.
Setting [8] is: Table 2, 1.875 mpk iv, read-out: MAP (mean arterial pressure), percent change from pre-drug control.
The mark [9] stands for this setting: Table 2, 1.875 mpk iv, read-out: dP/dt (left ventricular dP/dtmax), percent change from pre-drug control.

The term ED50 denotes the midpoint of the dose-response relation. Take `OC(CSc1ncnc2[nH]cnc12)CN1CCN(C(c2ccc(F)cc2)c2ccc(F)cc2)CC1` (stereo not shown) [Example 1, 6-[1-[1-[Bis(4-fluorophenyl)methyl]piperazine-4-yl]-2-hydroxy-3-propanylthio]purine Hemihydrate]: the change in vivo at 1.875 mg/kg runs as follows: under setting [1], 214%; under setting [2], 1%; under setting [3], -5%; under setting [4], 127%. The median effective dose (ED50) under setting [5] was found to be 0.16 mg/kg.
For `O[C@H](CSc1ncnc2nc[nH]c12)CN1CCN(C(c2ccc(F)cc2)c2ccc(F)cc2)CC1` [Example 2, (2S)-(+)-6-[1-[1-[Bis(4-fluorophenyl)methyl]piperazin-4-yl]-2-hydroxy-3-propanylthio]purine] the same measures were 212%, -6%, -13%, 168% and 0.07 mg/kg.
As for `O[C@@H](CSc1ncnc2nc[nH]c12)CN1CCN(C(c2ccc(F)cc2)c2ccc(F)cc2)CC1` [Example 3, (2R)-(-)-6-[1-[1-[Bis(4-fluorophenyl)methyl]piperazin-4-yl]-2-hydroxy-3-propanylthio]purine], the change in vivo at 1.875 mg/kg runs as follows: under setting [1], 151%; under setting [2], -8%; under setting [3], -4%; under setting [4], 91%. The ED50 under setting [5] was 0.35 mg/kg.
With `OC(CSc1ncnc2[nH]cnc12)CN1CCN(C(c2ccccc2)c2ccccc2)CC1` (stereo not shown) [Example 4, 6-[2-Hydroxy-3-(1-(diphenylmethyl)piperazin-4-yl)propan-1-yl]triopurine Hemihydrate], the change in vivo at 1.875 mg/kg is 86% under setting [1], -1% under setting [2], -12% under setting [3] and 60% under setting [4].
Turning to `OC(CSc1ncnc2[nH]cnc12)CN1CCN(Cc2ccccc2)CC1` (stereo not shown) [Example 5, 6-[1-[1-(Benzyl)piperazin-4-l]-2-hydroxy-3-propanylthio]purine Monomalonate.cndot.5/2 Hydrate], the change in vivo at 1.875 mg/kg was 43% under setting [1], 5% under setting [2], -3% under setting [3] and 58% under setting [4].
With `OC(CSc1ncnc2[nH]cnc12)CN1CCN(Cc2ccc3c(c2)OCO3)CC1` (stereo not shown) [Example 6, 6-[3-[4-(1,3-Benzodioxol-5-yl)methyl]piperazin-1-yl]-2-hydroxyprop-1-ylthio]purine Sesquihydrate], the change in vivo at 1.875 mg/kg came to 79% under setting [1], 15% under setting [2], 4% under setting [3] and 80% under setting [4].
For `OC(CSc1ncnc2[nH]cnc12)CN1CCN(C(c2ccccc2)c2ccc(Cl)cc2)CC1` (stereo not shown) [Example 7, 6-[1-[1-(4-Chlorobenzhydryl)]piperazin-4-yl]-2-hydroxy-3-propanylthio]purine Monohydrate] the same measures were 97%, 0%, 1% and 75%.
Take `OC(CSc1ncnc2[nH]cnc12)CN1CCN(C(c2ccc(C(F)(F)F)cc2)c2cccc(C(F)(F)F)c2)CC1` (stereo not shown) [Example 10, 6-[1-[1-(3,4'[Bis(trifluoromethylphenyl)methyl])piperazin-4-yl]-2-hydroxy-3-propanylthio]purine]: the change in vivo at 1.875 mg/kg was determined as 71% under setting [1], 0% under setting [2], 5% under setting [3] and 47% under setting [4].
Regarding `CC(=O)OC(CSc1ncnc2[nH]cnc12)CN1CCN(C(c2ccc(F)cc2)c2ccc(F)cc2)CC1` (stereo not shown) [Example 11, 6-[1-[1-[Bis(4-fluorophenyl)methyl]piperazin-4-yl]-2-acetoxy-3-propanylthio]purine 3/4 Hydrate], the ED50 worked out at 0.45 mg/kg. Moreover, under setting [1], the change in vivo at 1.875 mg/kg worked out at 145%. Under setting [2], the change in vivo at 1.875 mg/kg is -4%. For the same compound, under setting [3], the change in vivo at 1.875 mg/kg is -12%. In addition, the change in vivo at 1.875 mg/kg under setting [4] was found to be 62%.
For `Fc1ccc(C(c2ccc(F)cc2)N2CCN(CCCSc3ncnc4nc[nH]c34)CC2)cc1` [Example 14, 6-[1-[1-[Bis(4-fluorophenyl)methyl]piperazin-4-yl]-3-propanylthio]purine], the change in vivo at 1.875 mg/kg by setting is: under setting [1], 38%; under setting [2], 2%; under setting [3], -6%; under setting [4], 17%.
As for `OC(CSc1ncnc2[nH]cnc12)CN1CCC(=C(c2ccc(F)cc2)c2ccc(F)cc2)CC1` (stereo not shown) [Example 15, 6-[1-[4-[Bis(4'-fluorophenyl)methylene]-1-piperidinyl]-2-hydroxy-3-propanylthio]purine Hemihydrate], the 50% effective dose (ED50) was 0.725 mg/kg. Moreover, the change in vivo at 1.875 mg/kg under setting [1] turned out to be 87%. Besides, the change in vivo at 1.875 mg/kg under setting [2] is -7%. The change in vivo at 1.875 mg/kg under setting [3] is -14%. Under setting [4], the change in vivo at 1.875 mg/kg was determined as 28%.
The corresponding values for `OC(CSc1ncnc2[nH]cnc12)CN1CCN(C(c2ccc(Cl)cc2)c2ccc(Cl)cc2)CC1` (stereo not shown) [Example 16, 6-[1-[1-[Bis(4-chlorophenyl)methyl]piperazin-4-yl]-2 hydroxy-3-propanylthio]purine.cndot.5/4 Hydrate] are 0.608 mg/kg, 151%, -4%, 9% and 99%.
As for `OC(COc1ncnc2c1ncn2C1CCCCO1)CN1CCN(C(c2ccc(F)cc2)c2ccc(F)cc2)CC1` (stereo not shown) [Example 17], the change in vivo at 1.875 mg/kg under setting [1] stood at 37%, the change in vivo at 1.875 mg/kg under setting [2] was found to be 0%, the change in vivo at 1.875 mg/kg under setting [3] is -13% and the change in vivo at 1.875 mg/kg under setting [4] is 16%.
In the case of `OC(COc1ncnc2[nH]cnc12)CN1CCN(C(c2ccc(F)cc2)c2ccc(F)cc2)CC1` (stereo not shown) [Example 18, 6-[3-[4-Bis(4-fluorophenyl)methyl]piperazin-1-yl-2-hydroxy]propoxypurine], the 50% effective dose (ED50) stood at 0.825 mg/kg. In addition, the change in vivo at 1.875 mg/kg under setting [1] stood at 80%. In addition, under setting [2], the change in vivo at 1.875 mg/kg was 12%. Moreover, under setting [3], the change in vivo at 1.875 mg/kg was 4%. The change in vivo at 1.875 mg/kg under setting [4] was 58%.
`OC(COc1ncnc2c1ncn2C1CCCCO1)CN1CCN(C(c2ccccc2)c2ccccc2)CC1` (stereo not shown) [Example 19]: the change in vivo at 1.875 mg/kg runs as follows: under setting [1], 43%; under setting [2], 3%; under setting [3], 2%; under setting [4], 19%.
The corresponding values for `OC(COc1ncnc2nc[nH]c12)CN1CCN(C(c2ccccc2)c2ccccc2)CC1` (stereo not shown) [Example 20, 6-[3-[4-(Diphenylmethyl)piperazin-1-yl]-2-hydroxypropoxy]-purine] are 66%, 2%, 4% and 36%.
On to `OC(CSc1ncnc2[nH]cnc12)CN1CCN(C(c2cccc(C(F)(F)F)c2)c2cccc(C(F)(F)F)c2)CC1` (stereo not shown) [Example 23, 6-[1-[1-[Bis(3-trifluoromethylphenyl)methyl]piperazin-4-yl]-2-hydroxy-3-propanylthio]purine Hemihydrate], for which the change in vivo at 1.875 mg/kg under setting [6] was 44%, the change in vivo at 1.875 mg/kg under setting [7] is -7%, the change in vivo at 1.875 mg/kg under setting [8] was determined as 7% and the change in vivo at 1.875 mg/kg under setting [9] was found to be 30%.
Consider `OC(CSc1ncnc2[nH]c(-c3ccccc3)nc12)CN1CCN(C(c2ccc(F)cc2)c2ccc(F)cc2)CC1` (stereo not shown) [Example 24, 6-[1-[1-[Bis(4-fluorophenyl)methyl]piperazin-4-yl]-2-hydroxy-3-propanylthio]-8-phenylpurine.cndot.1/3Hydrate], for which the change in vivo at 1.875 mg/kg by setting is: under setting [6], 12%; under setting [7], 4%; under setting [8], -3%; under setting [9], 5%.

For the origin of these results see US5164390A, “6-substituted purinyl piperazine derivatives” (Ortho Pharmaceutical Corporation, priority 1991, dated 1992).
